This is an account of results in PMC12381739, “Druglike Molecular Degraders of the Oncogenic RNA-Binding Protein HuR” (JACS Au, 2025).

For test [1], the target named is T1, HuR RRM1/2 (Homo sapiens, UniProt Q15717).
T1 construct: 20 nM of the 5′-FAM RNA probe and 500 nM of HuR RRM1/2
In words: Fluorescence polarization (FP) displacement assay, 5′ FAM-labeled RNA probe from HuR. The note with it: displacement of 5′-FAM RNA probe UAUUUAUUUA (20 nM) from 500 nM HuR RRM1/2; read-out: Binding affinity towards HuR in FP assay (Kd). As to the method: Following the synthesis, our initial aim was to ensure that the new derivatives retained their affinity for HuR’s RNA-binding pocket. Thus, a binding evaluation assay was conducted. As previously reported, the RNA-binding pocket of HuR specifically recognizes the UTR sequences of mRNAs, with […] identified as a common binding motif. To evaluate the binding of each degrader, we conducted a fluorescence-based assay utilizing a 5-carboxyfluorescein (5′ FAM)-labeled reporter. This fluorescence polarization (FP) assay is based on the displacement of the 5′ FAM-labeled mRNA from HuR’s RNA-binding pocket, which provides insight into both the binding affinity of the degrader and its capacity to disrupt the HuR-mRNA interaction, thereby serving as a means of validating target engagement. When the 5′ FAM-RNA probe is bound to HuR, it forms a binary complex, resulting in slower rotational movement and a consequently high FP signal. However, when either molecule displaces the 5′ FAM-labeled RNA, the probe is released into the solution, where it undergoes rapid rotation, leading to a significant reduction in the FP signal (Figure S3). This decrease in FP serves as a quantitative measure of the degrader’s ability to compete with mRNA for HuR binding. […] As mentioned above, we synthesized a series of HuR ligand derivatives featuring indole and benzothiophene cores, along with ester and carboxylic acid functional groups.
As previously reported, the sequence of the fluorescently labeled (5′-FAM) RNA probe is […]. The assays were performed in PBS buffer (20 mM sodium phosphate, 150 mM NaCl, 1 mM dithiothreitol, 0.05% PLURONIC-127, 15% DMSO) at 293 K. Fluorescence was measured using the Synergy H1 Hybrid Multi-Mode Microplate Reader (Biotek, Agilent) with excitation and emission wavelengths set to 485 and 528 nm, respectively. Each well of a 384-well plate contained 20 nM of the 5′-FAM RNA probe and 500 nM of HuR RRM1/2. Compounds were tested at eight concentrations (0.1 nM–100 μM), with compound 10 serving as a positive control and PBS as the negative control. The protein-mRNA mixture was incubated for 1.5 h to allow for binding interactions. After this incubation, the compounds were added, and the mixture was incubated for an additional hour. The FP emission of the resulting HuR-compound complex was then recorded. The percent inhibition of binding was calculated by comparing the FP values of experimental conditions to the PBS control. The FP value corresponding to the HuR-RNA complex in the presence of DMSO was used as the 100% complexation reference, while the FP value of the labeled RNA alone was set as 0% complexation. The dissociation constant (K d) for the compound-HuR binding interaction was determined by fitting the dose–response curve to specific binding models using Prism 10.2.2. All experiments were performed in triplicate.

Test [2] has as its target T2, GFP-HuR (Homo sapiens, UniProt Q15717).
T2 construct: host or cells: HEK-293
In words: GFP-HuR reporter assay. The class given is cell-based. Particulars: HEK 293 cells, 10 μM, 24 h. Background: In a reporter assay the amount or activity of a reporter protein is the signal.
Method: To assess the effects of the HuR degraders in cells in a high-throughput fashion, a GFP-HuR reporter assay was utilized. In this assay, HuR was fused with green fluorescent protein (GFP), facilitating the monitoring of its expression and stability through fluorescence intensity (Figure A). A decrease in the GFP signal indicates HuR degradation.
HEK-293 cells were cultured in 100 mm diameter plates to approximately 70% confluency and transfected with 15 μg of GFP-HuR (ELAVL1) reporter plasmid (Addgene #121162) in a 1:2 ratio with the PEI transfection reagent (Med Chem Express, HY-K2014) at a concentration of 1 mg/mL, following the manufacturer’s recommended protocol. After 6 h of transfection, the cells were reseeded into 96-well plates. […] Fluorescence measurements were taken using the Synergy H1 Hybrid Multi-Mode Microplate Reader (Biotek, Agilent) with excitation and emission wavelengths set to 479 and 520 nm, respectively, according to the manufacturer’s instructions. All experiments were performed in triplicate.

For test [3], the system named is Bcl2 and FOXQ1 mRNA. In words: mRNA RT-qPCR of Bcl2 and FOXQ1 in MCF-7 cells. The class given is cell-based, human. The note with it: MCF-7, any of the concentrations evaluated. As to the method: MCF-7 cells were seeded into 12-well plates (∼150,000 cells per well) at 60–70% confluency incubated for 12 h. The cells were then treated with different synthesized compounds at the indicated concentrations or with vehicle control for 24 and 48 h. After treatment, total RNA was extracted using the QuickRNA Miniprep Kit (Zymo Research) according to the manufacturer’s protocol, including DNase I treatment. Reverse transcription was performed on 1 μg of total RNA using the qScript cDNA Synthesis Kit (Quantabio) following the manufacturer’s instructions. Approximately 30 ng of cDNA were used for each qPCR reaction, which was carried out using the Luna Universal qPCR Master Mix (New England BioLabs, cat# E3010G) on a CFX Opus 384 Real-Time PCR System. Relative expression levels of Bcl-2 and FOXQ1 were calculated by normalizing to GAPDH expression using the ΔΔCt method.
For orientation: Real-time PCR tracks product formation cycle by cycle.

In test [4] the test system is MCF-7 spheroids. In words: 3D spheroid growth model, MCF-7. The class given is cell-based, human. As to the method:
(§1) MDA-MB-231 and MCF-7 breast cancer cells were cultured in standard tissue culture plates using RPMI or DMEM media supplemented with 10% fetal bovine serum (FBS) and 1% penicillin–streptomycin until they reached approximately 80% confluency. Cells were washed with PBS and dissociated using 0.25% Trypsin-EDTA, followed by neutralization with complete medium. Viability was assessed via trypan blue exclusion, ensuring >90% viable cells. For spheroid formation, cells were seeded into ultralow attachment 96-well plates at a density of 5000 cells/well in 200 μL of complete medium. Plates were centrifuged at 1000 rpm for 5 min to promote aggregation and incubated at 37 °C in a humidified 5% CO2 atmosphere. Spheroid formation was monitored daily using an inverted microscope. Media exchanges or treatment additions were performed by carefully aspirating 100 μL of medium from each well and replacing it with an equal volume of fresh or treatment-containing medium. Differences in spheroid characteristics between the two cell lines were noted: MCF-7 cells, being epithelial and E-cadherin positive, formed compact, uniform spheroids at lower seeding densities (1000–5000 cells/well) over 3–5 days, whereas MDA-MB-231 cells, which lack E-cadherin, required higher densities (5000–10,000 cells/well) and formed looser aggregates typically within 2–4 days. All experiments were performed in duplicates. Surface area was calculated using Image View’s multipoint connection function.

Test [5] relates to MDA-MB-231 spheroids. In words: 3D spheroid growth model, MDA-MB-231. It is filed as cell-based, human. As to the method: as §1
The target of test [6] is HuR (Homo sapiens, UniProt Q15717). In words: HuR protein expression by western blot in MCF-7 cells. It is filed as cell-based. More on the design: endogenous in cells; host or cells: MCF-7. From the text: Michigan Cancer Foundation-7 (MCF-7) cells were chosen due to their documented overexpression of HuR, which has been linked to cancer pathogenicity in this specific cell line. , Consequently, reducing HuR expression to physiologically normal levels is considered a potential strategy for novel anticancer therapies targeting breast cancers associated with HuR overexpression.
Total protein was extracted using RIPA cell lysis buffer (BioPrep) containing a protease inhibitor, and protein concentration was measured using the BCA protein assay (Sigma-Aldrich) according to the manufacturer’s protocol. Approximately 30 μg of total protein were resolved on a 12% SDS-acrylamide gel and transferred to a PVDF membrane (Immobilon FL transfer membrane; Merck). The membrane was washed with 1× Tris-buffered saline (TBS) containing 0.1% (v/v) Tween-20 (TBST; Tris-base, pH 7.6, NaCl, and Tween-20) and blocked in 1× TBST containing 5% (w/v) BSA for 2 h at room temperature. The membrane was then incubated overnight at 4 °C with primary antibodies: a 1:1000 dilution of rabbit anti-ELAVL1/HuR (Cell Signaling Technology, #12582), a 1:1000 dilution of mouse anti-Bcl2 (Cell Signaling Technology, #15071), or a 1:10,000 dilution of rabbit anti-Vinculin (Cell Signaling Technology, #13901) in 1× TBST containing 5% (w/v) BSA. Following primary antibody incubation, the membrane was washed with 1× TBST and incubated with a 1:10,000 dilution of the appropriate horseradish-peroxidase-conjugated secondary antibody (antirabbit IgG: Cell Signaling, #7074 or antimouse IgG: Cell Signaling, #7076) at room temperature for 2 h. After washing three times with 1X TBST (10 min per wash), protein bands were visualized using Clear Band ECL Substrate (Gene Bio-Application) on the Azure C300 Imaging System. The fold change in the expression of the target proteins (HuR or Bcl2) was calculated by normalizing the band intensity to the Vinculin band intensity using ImageJ.

Sequence of HuR (Q15717 whole entry): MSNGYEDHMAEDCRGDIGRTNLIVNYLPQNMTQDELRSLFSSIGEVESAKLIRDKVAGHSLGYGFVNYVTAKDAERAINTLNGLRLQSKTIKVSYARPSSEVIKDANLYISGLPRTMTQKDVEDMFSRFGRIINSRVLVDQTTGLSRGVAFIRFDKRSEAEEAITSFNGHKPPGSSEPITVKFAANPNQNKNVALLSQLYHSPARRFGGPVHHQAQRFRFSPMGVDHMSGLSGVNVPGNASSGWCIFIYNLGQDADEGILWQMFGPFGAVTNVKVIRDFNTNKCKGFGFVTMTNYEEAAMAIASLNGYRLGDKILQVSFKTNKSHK
T1 sequence (Q15717 18-186 limits assumed): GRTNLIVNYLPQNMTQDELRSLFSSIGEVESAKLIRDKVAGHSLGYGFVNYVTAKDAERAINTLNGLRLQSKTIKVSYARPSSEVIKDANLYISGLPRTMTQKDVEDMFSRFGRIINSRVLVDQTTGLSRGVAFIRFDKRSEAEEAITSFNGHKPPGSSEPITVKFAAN
T2 sequence (Q15717 whole entry): as the sequence (Q15717 whole entry) above

For orientation: Kd means the constant that tells how readily two partners part at equilibrium. As for `CCOC(=O)c1cc2cc(NC(=O)/C=C/c3ccc(C(F)(F)F)cc3)ccc2[nH]1` [MG-HuR3], in test [1], the Kd was 9.3 nM.
Same read-out and setting: next, `O=C1CCC(N2C(=O)c3cccc(NCCc4cn(CCCC(=O)Nc5ccc6[nH]c(C(=O)O)cc6c5)nn4)c3C2=O)C(=O)N1` (centres unmarked) [PRO-HuR2]: 10.1 nM.
Regarding `O=C(/C=C/c1ccc(C(F)(F)F)cc1)Nc1ccc2sc(C(=O)O)cc2c1` [MG-HuR5], the equilibrium dissociation constant (Kd) in test [1] was determined as 818 nM. The GFP-HuR fluorescence intensity entry in test [2] was “significant reduction in fluorescence intensity”.
For the compound `CCOC(=O)c1cc2cc(NC(=O)C3CN(c4cccc5c4C(=O)N(C4CCC(=O)NC4=O)C5=O)C3)ccc2s1` (centres unmarked) [PRO-HuR8], the Kd in test [1] was determined as 6430 nM.
For `CCOC(=O)c1cc2cc(N)ccc2[nH]1` [Binder 1], in test [3], the “RNA levels of Bcl2 and FOXQ1 with HuR ligands” value is given as “no effect was observed”. Also, the “day at which a decrease in spheroid surface area was first observed” value stood at 14 days in test [4] and 9 days in test [5]. Moreover, the spheroid growth result in test [4] (10 nM) and in test [5] (10 nM) was “no significant impact on spheroid growth” in each case. The “HuR expression after treatment with HuR ligands alone” value in test [6] (MCF-7, Binder 1 1 µM 24 h, Binder 2 10 µM 48 h (Figure S8)) is recorded as “No significant decrease in HuR expression”.
For the compound `O=C1CCC(N2C(=O)c3cccc(NCc4cn(-c5ccc6[nH]c(C(=O)O)cc6c5)nn4)c3C2=O)C(=O)N1` (centres unmarked) [PRO-HuR1], in test [1], the Kd came to 9.5 nM.
As for `CCOC(=O)c1cc2cc(NC(=O)C3CCN(c4cccc5c4C(=O)N(C4CCC(=O)NC4=O)C5=O)CC3)ccc2s1` (centres unmarked) [PRO-HuR5], the Kd in test [1] was determined as 6.5 nM.
For `CCOC(=O)c1cc2cc(-n3cc(CNc4cccc5c4C(=O)N(C4CCC(=O)NC4=O)C5=O)nn3)ccc2s1` (centres unmarked) [PRO-HuR4], the Kd in test [1] is 10.6 nM. Moreover, the “time-dependent response of HuR degradation” value in test [6] (MCF-7, 10 μM) is “did not”. For the same compound, in test [6] (MCF-7, 10 μM, 24 h), the HuR degradation ability entry is reported as “higher degradation efficiency”.
Turning to `CCOC(=O)c1cc2cc(NC(=O)/C=C/C(=O)c3ccc(OC)cc3)ccc2s1` [MG-HuR1], the Kd in test [1] was found to be 1080 nM.
Same read-out and setting: next, `CCOC(=O)c1cc2cc(NC(=O)CCC(=O)N3CCN(c4cccc5c4C(=O)N(C4CCC(=O)NC4=O)C5=O)CC3)ccc2s1` (centres unmarked) [PRO-HuR6]: 9390 nM.
As for `CCOC(=O)c1cc2cc(-n3cc(-c4ccc(C(=O)NCCNc5cccc6c5C(=O)N(C5CCC(=O)NC5=O)C6=O)cc4)nn3)ccc2s1` (centres unmarked) [PRO-HuR7], the Kd in test [1] worked out at 45.8 nM.
Still for that read-out and setting: with `CCOC(=O)c1cc2cc(NC(=O)/C=C/c3ccc(C(F)(F)F)cc3)ccc2s1` [MG-HuR4] the figure was 1490 nM.
